Test results: patent US20220048878A1, “IMPROVEMENT IN OR RELATING TO ORGANIC COMPOUNDS” (GIVAUDAN SA, priority 2018, published 2022)
Where two headings read alike, the source gives them in different places.

Key:
[1] = cited from earlier work
male rats [2] = settings: cited from earlier work
male rats [3] = experiment: Repeated dose 28-day oral toxicity study in rats (OECD Guideline 407), reproductive organs and sperm analysis; format: in vivo; settings: for Motile Sperms (%) / Sperm cells with normal morphology (count/total) / Sperm cells with normal morphology (percent) / Number of sperms per gram: male rats
Experimental: An isomeric mixture obtained according to Example 1 b was tested in a repeated dose 28-day oral toxicity study in rats according to OECD Guideline 407 (OECD, Paris, October 2008). Groups of animals (n=5) were fed with a diet containing the test item to obtain a daily ingested dose of 100 mg/kg body weight/day, 300 mg/kg body weight/day and 1000 mg/kg body weight/day. The animals were treated for 28 days. After this period, they were sacrificed and their organs were examined by pathological examination for gross lesions, weight changes and further investigated by histopathology. The seminal fluid from the epididymis was sampled and analyzed microscopically for number, morphology and motility of sperms.
All treated groups were compared to the control group with a Dunnett-test based on pooled variance and a Steel-test.

[4] = male rats, 1000 mg/kg body weight per day
[5] = male rats, 300 or 1000 mg/kg body weight per day
[6] = rats, 100, 300 and 1000 mg/kg body weight/day, 28 days

CC1CCOC(c2ccccc2)C1 (stereo not drawn) [Doremox®, 4-methyl-2-phenyltetrahydro-2H-pyran]
Lastingness compared to Rose Oxide ([1]; background statement): too long-lasting compared to Rose Oxide

CC(C)=CC1CC(C)CCO1 (racemic) [Rose Oxide, 4-methyl-2-(2-methylprop-1-en-1-yl)tetrahydro-2H-pyran]
Effects on sperm formation (male rats [2]; 28 days, OECD guideline 407, middle (300 mg/kg bw/d) and high (1000 mg/kg bw/d) dose): clear-cut effects on sperm formation
Classification (REACH/ECHA) (male rats [2]; classification provided by companies to ECHA): CMR2
Severity of immature ducts in distal corpus and/or cauda epididymis (histopathology) (male rats [2]; male rats, 300 mg/kg body weight per day): minimal to slight
Severity of immature ducts in distal corpus and/or cauda epididymis (histopathology) (male rats [2]; [4]): slight to severe
Weight increase of the epididymis, absolute (male rats [2]; [4]): 33%
Weight increase of the epididymis, relative (male rats [2]; [4]): 26%
Sperm function and morphology in the cauda epididymis (male rats [2]; [5]): adversely affected
Sperm numbers (male rats [2]; [5]): significantly reduced
Time to evaporate on a smelling strip ([1]; smelling strip): ≤ 30 min

CCC(C)=C[C@@H]1C[C@H](C)CCO1 (relative stereo) [rel-(2S,4R)-4-methyl-2-(2-methylbut-1-en-1-yl)tetrahydro-2H-pyran]
Suppression of sperm formation (male rats [3]; rats): does not suppress sperm formation

CCC(C)=CC1CC(C)CCO1 (stereo not drawn) [Example 1b, 4-methyl-2-(2-methylbut-1-en-1-yl)tetrahydro-2H-pyran]
Effect on key parameters of male fertility (male rats [3]; 28 days, up to 1000 mg/kg bw/d): no effect
Difference in sperm parameters between control group and treated groups (male rats [3]; Dunnett-test and Steel-test, p=0.05 significance level): No significant differences
Motile Sperms (%) (male rats [3]; 100 mg/kg bw/d, 28 days): 63 ± 12%
Sperm cells with normal morphology (count/total) (male rats [3]; 100 mg/kg bw/d, 28 days): 156/246
Sperm cells with normal morphology (percent) (male rats [3]; 100 mg/kg bw/d, 28 days): (63.4%)
Motile Sperms (%) (male rats [3]; 300 mg/kg bw/d, 28 days): 47 ± 13%
Sperm cells with normal morphology (count/total) (male rats [3]; 300 mg/kg bw/d, 28 days): 170/210
Sperm cells with normal morphology (percent) (male rats [3]; 300 mg/kg bw/d, 28 days): (81.0%)
Motile Sperms (%) (male rats [3]; 1000 mg/kg bw/d, 28 days): 53 ± 23%
Sperm cells with normal morphology (count/total) (male rats [3]; 1000 mg/kg bw/d, 28 days): 158/197
Sperm cells with normal morphology (percent) (male rats [3]; 1000 mg/kg bw/d, 28 days): (80.2%)
Number of sperms per gram (male rats [3]; n = 5, 100 mg/kg bw/d in diet, 28 days): 3.9 ± 0.9 × 10^8
Number of sperms per gram (male rats [3]; n = 5, 300 mg/kg bw/d in diet, 28 days): 4.0 ± 0.9 × 10^8
Number of sperms per gram (male rats [3]; n = 5, 1000 mg/kg bw/d in diet, 28 days): 4.0 ± 1.9 × 10^8
Macroscopic changes to reproductive organs (male rats [3]; [6]): no macroscopic changes
Weight of the reproductive organs versus control group (male rats [3]; [6]): not different from the control group
